Key:
[1] = tested on: T47D (PI3Kα-H1047R) cell line; experiment: HTRF phospho-AKT(S473) cell assay in T47D cells; type: cell-based, human; details: Homo sapiens, 2 hours compound incubation
In short: (§1)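 T47D: RPMI + 10% FBS + 0.2 units/mL insulin, top 5 μM. SKBR3: McCoy's 5A + 10% FBS, top 10 μM, 70 ng/ml PDGF-BB last 15 min. Both: 12-pt 1:3, 2 h, 37° C, max 0.5% DMSO; HTRF pAKT(S473); IC50.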

[2] = tested on: SKBR3 (PI3Kα-Wild Type) cell line; experiment: HTRF phospho-AKT(S473) cell assay in SKBR3 cells; type: cell-based, human; details: Homo sapiens, SK-BR-3, 2 hours compound incubation, PDGF-BB stimulated
In short: as §1

[3] = HTRF phospho-AKT(S473), T47D (PI3Kα-H1047R) cells
[4] = HTRF phospho-AKT(S473), SKBR3 (PI3Kα-Wild Type) cells
[5] = T47D (PI3Kα-H1047R) cells, HTRF phospho-AKT(S473)
[6] = SKBR3 (PI3Kα-Wild Type) cells, HTRF phospho-AKT(S473)

| Compound | IC50 [1, 3] | IC50 [2, 4] | IC50 [1, 5] | IC50 [2, 6] | other results |
| --- | --- | --- | --- | --- | --- |
| Cc1cnc(C2[C@H]3CN(c4nc5c([C@@H](C)Nc6ccc(Cl)nc6C(=O)NS(C)(=O)=O)cc(C)cc5c(=O)n4C)C[C@@H]23)nc1 (stereo partly drawn) [Compound 515, 6-chloro-3-(((1R)-1-(3,6-dimethyl-2-((1R,5S)-6-(5-methylpyrimidin-2-yl)-3-azabicyclo[3.1.0]hexan-3-yl)-4-oxo-3,4-dihydroquinazolin-8-yl)ethyl)amino)-N-(methylsulfonyl) picolinamide] | < 250 nM | 1000 to 5000 nM |  |  |  |
| Cc1cc([C@@H](C)Nc2ccc(Cl)nc2C(=O)NS(C)(=O)=O)c2nc(-c3ccc4c(cnn4C)c3)n(C)c(=O)c2c1 [Compound 774, (R)-6-chloro-3-((1-(3,6-dimethyl-2-(1-methyl-1H-indazol-5-yl)-4-oxo-3,4-dihydroquinazolin-8-yl)ethyl)amino)-N-(methylsulfonyl) picolinamide] | < 250 nM | 500 to 1000 nM |  |  |  |
| COC1CCC2(CC1)CCN(c1nc3c([C@@H](C)Nc4ccc(Cl)nc4C(=O)NS(C)(=O)=O)cc(C)cc3c(=O)n1C)CC2 [Compound 282, (R)-6-chloro-3-((1-(2-(9-methoxy-3-azaspiro[5.5]undecan-3-yl)-3,6-dimethyl-4-oxo-3,4-dihydroquinazolin-8-yl)ethyl)amino)-N-(methylsulfonyl) picolinamide] |  |  | < 250 nM | ≥ 5000 nM |  |
| Cc1cc([C@@H](C)Nc2ccc(Cl)nc2C(=O)NS(C)(=O)=O)c2nc(N3Cc4cn(-c5ccncc5)nc4C3)n(C)c(=O)c2c1 [Compound 192, (R)-6-chloro-3-((1-(3,6-dimethyl-4-oxo-2-(2-(pyridin-4-yl)-2,6-dihydropyrrolo[3,4-c]pyrazol-5(4H)-yl)-3,4-dihydroquinazolin-8-yl)ethyl)amino)-N-(methylsulfonyl) picolinamide] |  |  | < 250 nM | 1000 to 5000 nM |  |
| Cc1cc([C@@H](C)Nc2ccc(Cl)nc2C(=O)NS(C)(=O)=O)c2nc(N3C[C@@H]4[C@H](C3)[C@H]4c3cc4n(n3)CCO4)n(C)c(=O)c2c1 [Compound 520, 6-chloro-3-(((R)-1-(2-((1R,5S,6R)-6-(2,3-dihydropyrazolo[5,1-b]oxazol-6-yl)-3-azabicyclo[3.1.0]hexan-3-yl)-3,6-dimethyl-4-oxo-3,4-dihydroquinazolin-8-yl)ethyl)amino)-N-(methylsulfonyl) picolinamide] | < 250 nM | 1000 to 5000 nM |  |  |  |
| Cc1cc([C@@H](C)Nc2ccc(Cl)nc2C(=O)NS(C)(=O)=O)c2nc(N3CCC[C@@H](c4nccc(C)n4)C3)n(C)c(=O)c2c1 (mixture of isomers) [Compound 633, 6-chloro-3-(((R)-1-(3,6-dimethyl-2-((RS)-3-(4-methylpyrimidin-2-yl)piperidin-1-yl)-4-oxo-3,4-dihydroquinazolin-8-yl)ethyl)amino)-N-(methylsulfonyl) picolinamide] | 250 to 500 nM | ≥ 5000 nM |  |  |  |
| Cc1cc([C@@H](C)Nc2ccc(Cl)nc2C(=O)NS(C)(=O)=O)c2nc(N3CCC(c4c(F)cnn4C4CC4)CC3)n(C)c(=O)c2c1 [Compound 455, (R)-6-chloro-3-((1-(2-(4-(1-cyclopropyl-4-fluoro-1H-pyrazol-5-yl)piperidin-1-yl)-3,6-dimethyl-4-oxo-3,4-dihydroquinazolin-8-yl)ethyl)amino)-N-(methylsulfonyl) picolinamide] | < 250 nM | 1000 to 5000 nM |  |  |  |
| Cc1cc([C@@H](C)Nc2ccc(Cl)nc2C(=O)NS(C)(=O)=O)c2nc(N3CCc4c(cnn4-c4ccccc4)C3)n(C)c(=O)c2c1 [Compound 195, (R)-6-chloro-3-((1-(3,6-dimethyl-4-oxo-2-(1-phenyl-1,4,6,7-tetrahydro-5H-pyrazolo[4,3-c]pyridin-5-yl)-3,4-dihydroquinazolin-8-yl)ethyl)amino)-N-(methylsulfonyl) picolinamide] |  |  | < 250 nM | 1000 to 5000 nM |  |
| COc1ncc(-c2nc3c([C@@H](C)Nc4ccc(Cl)nc4C(=O)NS(C)(=O)=O)cc(C)cc3c(=O)n2C)cn1 [Compound 856, (R)-6-chloro-3-((1-(2-(2-methoxypyrimidin-5-yl)-3,6-dimethyl-4-oxo-3,4-dihydroquinazolin-8-yl)ethyl)amino)-N-(methylsulfonyl) picolinamide] |  |  |  |  | IC50 ([1]; T47D (PI3Kα-H1047R) cell line, phospho-AKT(S473) HTRF): 250 to 500 nM; IC50 ([2]; SKBR3 (PI3Kα-Wild Type) cell line, phospho-AKT(S473) HTRF): ≥ 5000 nM |
| Cc1cc([C@@H](C)Nc2ccc(Cl)nc2C(=O)NS(C)(=O)=O)c2nc(N3Cc4cccc(-c5cnn(C)c5)c4C3)n(C)c(=O)c2c1 [Compound 273, (R)-6-chloro-3-((1-(3,6-dimethyl-2-(4-(1-methyl-1H-pyrazol-4-yl)isoindolin-2-yl)-4-oxo-3,4-dihydroquinazolin-8-yl)ethyl)amino)-N-(methylsulfonyl) picolinamide] |  |  | < 250 nM | ≥ 5000 nM |  |
| Cc1cc([C@@H](C)Nc2ccc(Cl)nc2C(=O)NS(C)(=O)=O)c2nc(N3CC[C@H](c4cnc(C)c(C#N)c4)C3)n(C)c(=O)c2c1 (relative stereo) [Compound 656, 6-chloro-3-(((R)-1-(2-((R*)-3-(5-cyano-6-methylpyridin-3-yl)pyrrolidin-1-yl)-3,6-dimethyl-4-oxo-3,4-dihydroquinazolin-8-yl)ethyl)amino)-N-(methylsulfonyl) picolinamide] | 250 to 500 nM | 1000 to 5000 nM |  |  |  |
| Cc1cc([C@@H](C)Nc2ccc(Cl)nc2C(=O)NS(C)(=O)=O)c2nc(N3CCC[C@@H](Oc4ccc(C)nc4)C3)n(C)c(=O)c2c1 [Compound 368, 6-chloro-3-(((R)-1-(3,6-dimethyl-2-((R)-3-((6-methylpyridin-3-yl)oxy)piperidin-1-yl)-4-oxo-3,4-dihydroquinazolin-8-yl)ethyl)amino)-N-(methylsulfonyl) picolinamide] |  |  | 250 to 500 nM | ≥ 5000 nM |  |
| Cc1cc([C@@H](C)Nc2ccc(Cl)nc2C(=O)NS(C)(=O)=O)c2nc(N3CCC(c4cccn(C)c4=O)CC3)n(C)c(=O)c2c1 [Compound 348, (R)-6-chloro-3-((1-(3,6-dimethyl-2-(4-(1-methyl-2-oxo-1,2-dihydropyridin-3-yl)piperidin-1-yl)-4-oxo-3,4-dihydroquinazolin-8-yl)ethyl)amino)-N-(methylsulfonyl) picolinamide] |  |  | < 250 nM | ≥ 5000 nM |  |
| Cc1cc([C@@H](C)Nc2ccc(Cl)nc2C(=O)NS(C)(=O)=O)c2nc(N3CCC(c4nccc(C)n4)CC3)n(C)c(=O)c2c1 [Compound 468, (R)-6-chloro-3-((1-(3,6-dimethyl-2-(4-(4-methylpyrimidin-2-yl)piperidin-1-yl)-4-oxo-3,4-dihydroquinazolin-8-yl)ethyl)amino)-N-(methylsulfonyl) picolinamide] | < 250 nM | ≥ 5000 nM |  |  |  |
| Cc1cc([C@@H](C)Nc2ccc(Cl)nc2C(=O)NS(C)(=O)=O)c2nc(N3Cc4cn(-c5cccnc5C)nc4C3)n(C)c(=O)c2c1 [Compound 246, (R)-6-chloro-3-((1-(3,6-dimethyl-2-(2-(2-methylpyridin-3-yl)-2,6-dihydropyrrolo[3,4-c]pyrazol-5(4H)-yl)-4-oxo-3,4-dihydroquinazolin-8-yl)ethyl)amino)-N-(methylsulfonyl) picolinamide] |  |  | < 250 nM | 1000 to 5000 nM |  |
| Cc1cc([C@@H](C)Nc2ccc(Cl)nc2C(=O)NS(C)(=O)=O)c2nc(N3C[C@@H]4CC(c5cnc(C)nc5)C[C@H]4C3)n(C)c(=O)c2c1 (mixture of isomers) [Compound 762, 6-chloro-3-(((R)-1-(3,6-dimethyl-2-((3aRS,6aRS)-5-(2-methylpyrimidin-5-yl)hexahydrocyclopenta [c]pyrrol-2(1H)-yl)-4-oxo-3,4-dihydroquinazolin-8-yl)ethyl)amino)-N-(methylsulfonyl) picolinamide] | 250 to 500 nM | ≥ 5000 nM |  |  |  |
| Cc1cc([C@@H](C)Nc2ccc(Cl)nc2C(=O)NS(C)(=O)=O)c2nc(N3CCC(c4cnn(C(C)C)n4)CC3)n(C)c(=O)c2c1 [Compound 744, (R)-6-chloro-3-((1-(2-(4-(2-isopropyl-2H-1,2,3-triazol-4-yl)piperidin-1-yl)-3,6-dimethyl-4-oxo-3,4-dihydroquinazolin-8-yl)ethyl)amino)-N-(methylsulfonyl) picolinamide] | 250 to 500 nM | ≥ 5000 nM |  |  |  |
| Cc1cc([C@@H](C)Nc2ccc(Cl)nc2C(=O)NS(C)(=O)=O)c2nc(N3CCC(c4ncn(C)n4)CC3)n(C)c(=O)c2c1 [Compound 253, (R)-6-chloro-3-((1-(3,6-dimethyl-2-(4-(1-methyl-1H-1,2,4-triazol-3-yl)piperidin-1-yl)-4-oxo-3,4-dihydroquinazolin-8-yl)ethyl)amino)-N-(methylsulfonyl) picolinamide] |  |  | 250 to 500 nM | 1000 to 5000 nM |  |
| CCn1c(N2Cc3cnn(CC(F)(F)F)c3C2)nc2c([C@@H](C)Nc3ccc(Cl)nc3C(=O)NS(C)(=O)=O)cc(C)cc2c1=O [Compound 733, (R)-6-chloro-3-((1-(3-ethyl-6-methyl-4-oxo-2-(1-(2,2,2-trifluoroethyl)-4,6-dihydropyrrolo[3,4-c]pyrazol-5(1H)-yl)-3,4-dihydroquinazolin-8-yl)ethyl)amino)-N-(methylsulfonyl) picolinamide] | 500 to 1000 nM | 1000 to 5000 nM |  |  |  |
| Cc1cc([C@@H](C)Nc2ccc(Cl)nc2C(=O)NS(C)(=O)=O)c2nc(N3CCC(C)(c4c(F)cnn4C)CC3)n(C)c(=O)c2c1 [Compound 407, (R)-6-chloro-3-((1-(2-(4-(4-fluoro-1-methyl-1H-pyrazol-5-yl)-4-methylpiperidin-1-yl)-3,6-dimethyl-4-oxo-3,4-dihydroquinazolin-8-yl)ethyl)amino)-N-(methylsulfonyl) picolinamide] |  |  | 250 to 500 nM | ≥ 5000 nM |  |
